From patent US20060160790A1, “Thioureas as factor Xa inhibitors” (Portola Pharmaceuticals, Inc., priority 2004, published 2006)

Each molecule was assayed against T1, human plasma protein factor Xa (Homo sapiens, UniProt P00742) (assay: Factor Xa IC50 determination (cleavage of paranitroanilide substrate S-2765)). Conditions: fXa 1 nM, S2765 100 μM, Tris buffered saline pH 7.4, room temperature.
T1 construct: measure proteolytic activity of the enzyme (factor Xa) by following cleavage of paranitroanilide substrate; purchased Haematologic Technologies (Essex Junction, Vt.); host or cells: human plasma
Assay type: biochemical
Protocol: An in vitro assay for detecting and measuring inhibition activity against Factor Xa is as follows:
The substrate S-2765 (Z-D-Arg-Gly-Arg-pNA.HCl) was obtained from Diapharma (West Chester, Ohio).
The human plasma protein factor Xa was purchased from Haematologic Technologies (Essex Junction, Vt.).
All assays, which are performed in 96-well microtiter plates, measure proteolytic activity of the enzyme (factor Xa) by following cleavage of paranitroanilide substrate. The assay buffer used for proteolytic assays was Tris buffered saline (20 mM Tris, 150 mM NaCl, 5 mM CaCl2, 0.1% Bovine serum albumin (BSA), 5% Dimethly Sulfoxide (DMSO) pH 7.4). In a 96-well microtiter plate, inhibitor was serially diluted to give a range of concentrations from 0.01 nM to 10 μM (final). Duplicate sets of wells were assayed and control wells without inhibitor were included. Enzyme was added to each well, (fXa concentration=1 nM), the plate was shaken for 5 seconds and then incubated for 5 minutes at room temperature. S2765 was added (100 μM final) and the plate was shaken for 5 seconds (final liquid volume in each well was 200 μl). The degree of substrate hydrolysis was measured at 405 nm on a Thermomax plate reader (Molecular Devices, Sunnyvale, Calif.) for 2 minutes. The initial velocities (mOD/min), for each range of inhibitor concentrations, were fitted to a four parameter equation using Softmax data analysis software. The parameter C, derived from the resulting curve-fit, corresponded to the concentration for half maximal inhibition (IC50).

T1 sequence (P00742 235-488 limits assumed): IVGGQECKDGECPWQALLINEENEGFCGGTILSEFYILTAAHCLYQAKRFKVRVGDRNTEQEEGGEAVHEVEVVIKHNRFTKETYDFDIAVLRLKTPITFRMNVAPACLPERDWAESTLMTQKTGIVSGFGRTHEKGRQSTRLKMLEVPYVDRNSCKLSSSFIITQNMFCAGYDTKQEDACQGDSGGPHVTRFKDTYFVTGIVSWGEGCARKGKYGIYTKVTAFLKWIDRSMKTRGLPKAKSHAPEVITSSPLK
T1 sequence (P00742 41-179 partner limits assumed): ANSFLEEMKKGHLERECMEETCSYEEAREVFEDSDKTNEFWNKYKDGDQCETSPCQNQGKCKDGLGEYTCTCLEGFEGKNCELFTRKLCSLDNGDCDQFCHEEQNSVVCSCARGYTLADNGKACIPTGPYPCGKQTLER

IC50 [µM] | SMILES
0.1 to 0.5 | NS(=O)(=O)c1ccccc1-c1ccc(NC(=O)C(NC(=S)Nc2ccc(Cl)cc2)c2ccccc2)cc1 (stereo in doubt) [Example 32, (S) N-[4-(2-aminosulfonylphenyl)phenyl]-2-phenyl-2-(4-chlorophenylaminothiocarbonylamino)-acetamide]
≤ 0.1 | NS(=O)(=O)c1ccccc1-c1ccc(NC(=O)C(NC(=S)Nc2ccc(Cl)cc2)c2ccccc2)cc1 (stereo in doubt) [Example 33, (R) N-[4-(2-aminosulfonylphenyl)phenyl]-2-phenyl-2-(4-chlorophenylaminothiocarbonylamino)-acetamide]
≥ 0.5 | Cc1cc2cc(NC(=S)NCC(=O)Nc3ccc(C(=N)N(C)C)cc3)ccc2o1 [Example 1, N-[4-(dimethylaminoimino)phenyl]-2-[(2-methylbenzo[b]furan-5-yl)aminothiocarbonylamino]-acetamide]
≥ 0.5 | Cc1cc2cc(NC(=S)NCC(=O)Nc3ccc(C4=NCCN4C)cc3)ccc2o1 [Example 2, N-[4-(1-methyl-4,5-dihydro-1H-imidazol-2-yl)phenyl]-2-[(2-methylbenzo[b)furan-5-yl)aminothiocarbonylamino]-acetamide]
≥ 0.5 | Cc1cc2cc(NC(=S)N[C@@H](CC(C)C)C(=O)Nc3ccc(C(=N)N(C)C)cc3)ccc2o1 [Example 3]
≤ 0.1 | CN(C)C(=N)c1ccc(NC(=O)C(NC(=S)Nc2ccc(Br)cc2)c2ccccc2)cc1 (stereo not drawn) [Example 4, N-[4-(dimethylaminoimino)phenyl]-2-phenyl-2-(4-bromophenylaminothiocarbonylamino)-acetamide]
≤ 0.1 | N=C(c1ccc(NC(=O)C(NC(=S)Nc2ccc(Br)cc2)c2ccccc2)cc1)N1CCCC1 (stereo not drawn) [Example 5]
≤ 0.1 | N=C(c1ccc(NC(=O)C(NC(=S)Nc2ccc(Br)cc2)c2ccccc2)cc1)N1CCC1 (stereo not drawn) [Example 6]
≤ 0.1 | COCCN(C)C(=N)c1ccc(NC(=O)C(NC(=S)Nc2ccc(Br)cc2)c2ccccc2)cc1 (stereo not drawn) [Example 7, N-{4-[(N-methyl-N-2-methoxyethyl)aminoimino]phenyl}-2-phenyl-2-(4-bromophenylaminothiocarbonylamino)-acetamide]
≥ 0.5 | CCOC(=O)C1CCN(C(=N)c2ccc(NC(=O)C(NC(=S)Nc3ccc(Br)cc3)c3ccccc3)cc2)CC1 (stereo not drawn) [Example 8]
≤ 0.1 | CN1CCN=C1c1ccc(NC(=O)C(NC(=S)Nc2ccc(Br)cc2)c2ccccc2)cc1 (stereo not drawn) [Example 9, N-[4-(1-methyl-4,5-dihydro-1H-imidazol-2-yl)phenyl]-2-phenyl-2-(4-bromophenylaminothiocarbonylamino)-acetamide]
≤ 0.1 | N=C(c1ccc(NC(=O)C(NC(=S)Nc2ccc(F)cc2)c2ccccc2)cc1)N1CCCC1 (stereo not drawn) [Example 10]
≤ 0.1 | C#Cc1ccc(NC(=S)NC(C(=O)Nc2ccc(C(=N)N3CCCC3)cc2)c2ccccc2)cc1 (stereo not drawn) [Example 11]
≤ 0.1 | N=C(c1ccc(NC(=O)[C@@H](NC(=S)Nc2ccc(Br)cc2)c2ccccc2)cc1)N1CCCC1 [Example 13, (S) N-[4-(pyrrolidinylimino)phenyl]-2-phenyl-2-(4-bromophenylaminothiocarbonylamino)-acetamide]
0.1 to 0.5 | N=C(c1ccc(NC(=O)[C@@H](NC(=S)Nc2ccc(Br)cc2)c2ccccc2)cc1)N1CCCCC1 [Example 14, (S) N-[4-(piperidinylimino)phenyl]-2-phenyl-2-(4-bromophenylaminothiocarbonylamino)-acetamide]
≤ 0.1 | N=C(c1ccc(NC(=O)[C@@H](NC(=S)Nc2ccc(Br)cc2)c2ccccc2)cc1)N1CCCCCC1 [Example 15]
≤ 0.1 | N=C(c1ccc(NC(=O)[C@@H](NC(=S)Nc2ccc(Cl)cc2)c2ccccc2)cc1)N1CCCC1 [Example 16]
≥ 0.5 | N=C(c1ccc(NC(=O)[C@@H](NC(=S)Nc2ccc(Br)cc2F)c2ccccc2)cc1)N1CCCC1 [Example 17]

IC50 [µM] | SMILES
≥ 0.5 | N=C(c1ccc(NC(=O)[C@@H](NC(=S)Nc2ccc(Br)cc2OC(F)(F)F)c2ccccc2)cc1)N1CCCC1 [Example 18]
≥ 0.5 | Cc1cc(Br)ccc1NC(=S)N[C@H](C(=O)Nc1ccc(C(=N)N2CCCC2)cc1)c1ccccc1 [Example 19]
≥ 0.5 | N=C(c1ccc(NC(=O)[C@@H](NC(=S)Nc2ccc(Cl)cc2Cl)c2ccccc2)cc1)N1CCCC1 [Example 20]
≥ 0.5 | N=C(c1ccc(NC(=O)[C@@H](NC(=S)Nc2ccc(Br)c(Cl)c2)c2ccccc2)cc1)N1CCCC1 [Example 21, (S) N-[4-(pyrrolidinylimino)phenyl]-2-phenyl-2-(3-chloro-4-bromophenylaminothiocarbonylamino)-acetamide]
≥ 0.5 | N=C(c1ccc(NC(=O)[C@@H](NC(=S)Nc2ccc(Br)cc2C(F)(F)F)c2ccccc2)cc1)N1CCCC1 [Example 22]
≥ 0.5 | N=C(c1ccc(NC(=O)[C@@H](NC(=S)Nc2c(Br)cc(Br)cc2Br)c2ccccc2)cc1)N1CCCC1 [Example 23]
≤ 0.1 | CC(C)C(NC(=S)Nc1ccc(Cl)cc1)C(=O)Nc1ccc(C2=NCCN2C)cc1 (stereo not drawn) [Example 24, N-[4-(1-methyl-4,5-dihydro-1H-imidazol-2-yl)phenyl]-2-isopropyl-2-(4-chlorophenylaminothiocarbonylamino]-acetamide]
≤ 0.1 | O=C(Nc1ccc(N2CCOCC2=O)cc1)C(NC(=S)Nc1ccc(Cl)cc1)c1ccccc1 (stereo not drawn) [Example 25, N-[4-(3-oxo-morpholin-4-yl)phenyl]-2-phenyl-2-(4-chlorophenylaminothiocarbonylamino)-acetamide]
≤ 0.1 | CN1CCC(N2CCN(C(=O)[C@@H](NC(=S)Nc3ccc(Cl)cc3)c3ccccc3)CC2)CC1 [Example 26]
≤ 0.1 | CN1CCC(N2CCN(C(=O)[C@H](NC(=S)Nc3ccc(Cl)cc3)c3ccccc3)CC2)CC1 [Example 27]
≤ 0.1 | Cc1cc2cc(NC(=S)NC(C(=O)Nc3ccc(-c4ccccc4S(N)(=O)=O)cc3)c3ccccc3)ccc2o1 (stereo not drawn) [Example 28, N-[4-(2-aminosulfonylphenyl)phenyl]-2-phenyl-2-[(2-methylbenzo[b]furan-5-yl)aminothiocarbonylamino]-acetamide]
≤ 0.1 | NS(=O)(=O)c1ccccc1-c1ccc(NC(=O)C(NC(=S)Nc2ccc(Br)cc2)c2ccccc2)cc1 (stereo not drawn) [Example 29, N-[4-(2-aminosulfonylphenyl)phenyl]-2-phenyl-2-[(4-bromophenyl)aminothiocarbonylamino]-acetamide]
≤ 0.1 | NS(=O)(=O)c1ccccc1-c1ccc(NC(=O)[C@@H](NC(=S)Nc2ccc(Br)cn2)c2ccccc2)cc1 [Example 30, (S) N-[4-(2-aminosulfonylphenyl)phenyl]-2-phenyl-2-(5-bromopyridin-2-ylaminothiocarbonylamino)-acetamide]
0.1 to 0.5 | NS(=O)(=O)c1ccccc1-c1ccc(NC(=O)[C@H](NC(=S)Nc2ccc(Br)cn2)c2ccccc2)cc1 [Example 31, (R) N-[4-(2-aminosulfonylphenyl)phenyl]-2-phenyl-2-(5-bromopyridin-2-ylaminothiocarbonylamino)-acetamide]
≤ 0.1 | O=C(Nc1ccc(-n2ccccc2=O)cc1)[C@@H](NC(=S)Nc1ccc(Cl)cc1)c1ccccc1 [Example 34, (2S) N-[4-(2-pyridon-1-yl)phenyl]-2-phenyl-2-(4-chlorophenylaminothiocarbonylamino)-acetamide]
≤ 0.1 | O=C(Nc1ccc(-n2ccccc2=O)cc1)[C@H](NC(=S)Nc1ccc(Cl)cc1)c1ccccc1 [Example 35, (2R) N-[4-(2-pyridon-1-yl)phenyl]-2-phenyl-2-(4-chlorophenylaminothiocarbonylamino)-acetamide]
≤ 0.1 | O=C(Nc1ccc(-n2ccccc2=O)cc1F)[C@H](NC(=S)Nc1ccc(Cl)cc1)c1ccccc1 [Example 36, (2R) N-[4-(2-pyridon-1-yl)-2-fluorophenyl]-2-phenyl-2-(4-chlorophenylaminothiocarbonylamino)-acetamide]
≥ 0.5 | CN1CCC(C2CCN(C(=O)[C@H](NC(=S)Nc3ccc(Cl)cc3)c3ccccc3)CC2)CC1 [Example 37, (2R) 4-(1-methylpiperidin-4-yl)piperidin-1-yl-2-phenyl-2-(4-chlorophenylaminothiocarbonylamino)-acetamide]
